Results on 7 molecules are retold here after US11225505B2, “Antimicrobial polymyxin derivative compounds” (MONASH UNIVERSITY, priority 2015, dated 2022).

Values after ≈ are worked out from the molar mass of the structure shown. Where a SMILES comes first, the peptide text is derived from it. Bridges are numbered along the chain shown (N, C = ends). [ ]: non-standard residue; d: D form. The star is where a group is joined. X19 = O=C(c1ncc(C(F)(F)F)cc1Cl)*; X63 = O=C(c1ccc(C(F)(F)F)nc1Cl)*; X28 = Cc1cc(C(=O)*)cc(Cl)n1; X26 = CCc1ccc(C(=O)*)cn1; X30 = O=C(c1ccc(Cl)cn1)*; Dab = NCC[C@H](N)C(=O)O; Abu = CC[C@H](N)C(=O)O; Dap = NC[C@H](N)C(=O)O; X31 = O=C(c1ncccc1Cl)*; X53 = O=C(c1ccncc1Cl)*

Common to all, as to type: cell-based
Test [1] relates to Acinetobacter baumannii ATCC 17978. Conditions: ATCC 17978. The procedure, abridged: (§1)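 Broth microdilution MIC per CLSI in cation-adjusted Mueller-Hinton broth, lipopeptides tested as TFA salts. Polymyxin B sulphate served as control.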
The subject of test [2] is Acinetobacter baumannii FADDI-AB034. The following applies: FADDI-AB034. In short, it runs like this:
as §1

In test [3] the test system is Enterobacter cloacae FADDI-EC001. The following applies: FADDI-EC001. In short, it runs like this: (§2)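 Broth microdilution, CAMHB, per CLSI M100-S24; lipopeptides as TFA salts; polymyxin B sulphate control. Read-out: MIC. Strains are polymyxin-susceptible; PA022 and AB034 are MDR clinical isolates.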
In test [4] the test system is Enterobacter cloacae FADDI-EC003. Conditions: FADDI-EC003. The procedure, abridged: as §1
Test [5] relates to Enterobacter cloacae FADDI-EC006. Conditions: FADDI-EC006. In short, it runs like this: as §1
Test [6] deals with Klebsiella pneumoniae FADDI-KP022. The following applies: FADDI-KP022. The procedure, abridged:
as §1

The subject of test [7] is Klebsiella pneumoniae FADDI-KP032. The following applies: FADDI-KP032. The procedure, abridged: as §1
Test [8] deals with Klebsiella pneumoniae Kp BM1. Conditions: Kp BM1. The procedure, abridged: as §2
The subject of test [9] is Pseudomonas aeruginosa ATCC 27853. Conditions: ATCC 27853. The procedure, abridged:
as §1

In test [10] the test system is Pseudomonas aeruginosa FADDI-PA01. The following applies: FADDI-. The procedure, abridged:
as §1

The subject of test [11] is Pseudomonas aeruginosa FADDI-PA022. Conditions: FADDI-PA022. The procedure, abridged:
as §1

In test [12] the test system is Pseudomonas aeruginosa FADDI-PA038. Conditions: FADDI-PA038. In short, it runs like this:
as §1

The subject of test [13] is Acinetobacter baumannii FADDI-AB030. Put plainly: microbe, parasite or virus in culture. Conditions: FADDI-AB030. The procedure, abridged:
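Broth microdilution MIC in cation-adjusted Mueller-Hinton broth per CLSI M100-S24; lipopeptides tested as TFA salts. FADDI-AB030 is a multidrug-resistant clinical isolate. Polymyxin B sulphate served as control.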

With `CC[C@@H]1NC(=O)[C@@H](CC(C)C)NC(=O)[C@H](CCN)NC(=O)[C@@H](NC(=O)[C@H](CN)NC(=O)[C@@H](NC(=O)[C@H](CCN)NC(=O)c2ccncc2Cl)[C@@H](C)O)CCNC(=O)[C@H]([C@@H](C)O)NC(=O)[C@H](CCN)NC(=O)[C@H](CCN)NC1=O` [Compound 34] (X53-[Dab]T[Dap][Dab][Dab][dL][Abu][Dab][Dab]T; lactam 4-C), the Minimum inhibitory concentration in test [1] was 8 µg/mL (≈ 7.1 µM); in test [2], 8 µg/mL (≈ 7.1 µM); in [3] it was 0.25 µg/mL (≈ 0.222 µM); in test [4] it was 0.5 µg/mL (≈ 0.444 µM); in test [5], 2 µg/mL (≈ 1.78 µM); in [6], <0.125 µg/mL. The Minimum inhibitory concentration was determined as 1 µg/mL (≈ 0.888 µM) in [7]; 1 µg/mL (≈ 0.888 µM) in test [8]; 0.25 µg/mL (≈ 0.222 µM) in test [9]; 0.25 µg/mL (≈ 0.222 µM) in test [10]; 0.25 µg/mL (≈ 0.222 µM) in [11]; 1 µg/mL (≈ 0.888 µM) in test [12]. In addition, the Minimum inhibitory concentration in test [13] came to 8 µg/mL (≈ 7.1 µM).
Regarding `CC[C@@H]1NC(=O)[C@@H](CC(C)C)NC(=O)[C@H](CCN)NC(=O)[C@@H](NC(=O)[C@H](CN)NC(=O)[C@@H](NC(=O)[C@H](CCN)NC(=O)c2ncc(C(F)(F)F)cc2Cl)[C@@H](C)O)CCNC(=O)[C@H]([C@@H](C)O)NC(=O)[C@H](CCN)NC(=O)[C@H](CCN)NC1=O` [Compound 35] (X19-[Dab]T[Dap][Dab][Dab][dL][Abu][Dab][Dab]T; lactam 4-C), the Minimum inhibitory concentration was 0.25 µg/mL (≈ 0.209 µM) in test [1]; 0.25 µg/mL (≈ 0.209 µM) in [2]; <0.125 µg/mL in [3]; <0.125 µg/mL in test [4]; <0.125 µg/mL in test [5]; <0.125 µg/mL in [6]. Also, the Minimum inhibitory concentration in [7] was <0.125 µg/mL; in [8], <0.125 µg/mL; in test [9], 0.25 µg/mL (≈ 0.209 µM); in test [10] it was 0.25 µg/mL (≈ 0.209 µM); in test [11] it was 0.5 µg/mL (≈ 0.419 µM); in test [12], 0.5 µg/mL (≈ 0.419 µM). Moreover, the Minimum inhibitory concentration in test [13] is <0.125 µg/mL.
Take `CC[C@@H]1NC(=O)[C@@H](CC(C)C)NC(=O)[C@H](CCN)NC(=O)[C@@H](NC(=O)[C@H](CN)NC(=O)[C@@H](NC(=O)[C@H](CCN)NC(=O)c2ncccc2Cl)[C@@H](C)O)CCNC(=O)[C@H]([C@@H](C)O)NC(=O)[C@H](CCN)NC(=O)[C@H](CCN)NC1=O` [Compound 36] (X31-[Dab]T[Dap][Dab][Dab][dL][Abu][Dab][Dab]T; lactam 4-C): the Minimum inhibitory concentration is 8 µg/mL (≈ 7.1 µM) in test [1]; 4 µg/mL (≈ 3.55 µM) in test [2]; 0.25 µg/mL (≈ 0.222 µM) in test [3]; 0.5 µg/mL (≈ 0.444 µM) in [4]; 2 µg/mL (≈ 1.78 µM) in test [5]; <0.125 µg/mL in test [6]. The Minimum inhibitory concentration in [7] came to 1 µg/mL (≈ 0.888 µM); in test [8], 2 µg/mL (≈ 1.78 µM); in test [9] it was 0.5 µg/mL (≈ 0.444 µM); in test [10], 0.5 µg/mL (≈ 0.444 µM); in test [11], 0.5 µg/mL (≈ 0.444 µM); in [12] it was 1 µg/mL (≈ 0.888 µM). For the same molecule, the Minimum inhibitory concentration in test [13] is 4 µg/mL (≈ 3.55 µM).
Consider `CC[C@@H]1NC(=O)[C@@H](CC(C)C)NC(=O)[C@H](CCN)NC(=O)[C@@H](NC(=O)[C@H](CN)NC(=O)[C@@H](NC(=O)[C@H](CCN)NC(=O)c2ccc(Cl)cn2)[C@@H](C)O)CCNC(=O)[C@H]([C@@H](C)O)NC(=O)[C@H](CCN)NC(=O)[C@H](CCN)NC1=O` [Compound 37] (X30-[Dab]T[Dap][Dab][Dab][dL][Abu][Dab][Dab]T; lactam 4-C), for which the Minimum inhibitory concentration in test [1] is 2 µg/mL (≈ 1.78 µM); in test [2], 1 µg/mL (≈ 0.888 µM); in [3], 0.25 µg/mL (≈ 0.222 µM); in [4], 0.25 µg/mL (≈ 0.222 µM); in [5] it was 0.5 µg/mL (≈ 0.444 µM); in [6], <0.125 µg/mL. The Minimum inhibitory concentration was <0.125 µg/mL in test [7]; <0.125 µg/mL in test [8]; 0.25 µg/mL (≈ 0.222 µM) in test [9]; 0.25 µg/mL (≈ 0.222 µM) in test [10]; 0.25 µg/mL (≈ 0.222 µM) in test [11]; 0.5 µg/mL (≈ 0.444 µM) in test [12]. Also, the Minimum inhibitory concentration in test [13] turned out to be 0.5 µg/mL (≈ 0.444 µM).
Turning to `CC[C@@H]1NC(=O)[C@@H](CC(C)C)NC(=O)[C@H](CCN)NC(=O)[C@@H](NC(=O)[C@H](CN)NC(=O)[C@@H](NC(=O)[C@H](CCN)NC(=O)c2cc(C)nc(Cl)c2)[C@@H](C)O)CCNC(=O)[C@H]([C@@H](C)O)NC(=O)[C@H](CCN)NC(=O)[C@H](CCN)NC1=O` [Compound 39] (X28-[Dab]T[Dap][Dab][Dab][dL][Abu][Dab][Dab]T; lactam 4-C), the Minimum inhibitory concentration in test [1] is 1 µg/mL (≈ 0.877 µM); in test [2], 1 µg/mL (≈ 0.877 µM); in [3], 0.5 µg/mL (≈ 0.438 µM); in [4] it was 0.5 µg/mL (≈ 0.438 µM); in [5] it was 1 µg/mL (≈ 0.877 µM); in [6], <0.125 µg/mL. In addition, the Minimum inhibitory concentration worked out at 0.5 µg/mL (≈ 0.438 µM) in [7]; 1 µg/mL (≈ 0.877 µM) in [8]; 0.5 µg/mL (≈ 0.438 µM) in test [9]; 0.5 µg/mL (≈ 0.438 µM) in [10]; 0.5 µg/mL (≈ 0.438 µM) in test [11]; 1 µg/mL (≈ 0.877 µM) in [12]. In test [13], this molecule had a Minimum inhibitory concentration of 0.5 µg/mL (≈ 0.438 µM).
For `CC[C@@H]1NC(=O)[C@@H](CC(C)C)NC(=O)[C@H](CCN)NC(=O)[C@@H](NC(=O)[C@H](CN)NC(=O)[C@@H](NC(=O)[C@H](CCN)NC(=O)c2ccc(C(F)(F)F)nc2Cl)[C@@H](C)O)CCNC(=O)[C@H]([C@@H](C)O)NC(=O)[C@H](CCN)NC(=O)[C@H](CCN)NC1=O` [Compound 40] (X63-[Dab]T[Dap][Dab][Dab][dL][Abu][Dab][Dab]T; lactam 4-C), the Minimum inhibitory concentration in test [1] was 0.5 µg/mL (≈ 0.419 µM); in test [2], <0.125 µg/mL; in test [3], <0.125 µg/mL; in [4], <0.125 µg/mL; in [5] it was <0.125 µg/mL; in test [6], <0.125 µg/mL. Moreover, the Minimum inhibitory concentration in [7] is <0.125 µg/mL; in test [8], <0.125 µg/mL; in [9], 0.5 µg/mL (≈ 0.419 µM); in test [10], 0.5 µg/mL (≈ 0.419 µM); in test [11], 0.5 µg/mL (≈ 0.419 µM); in test [12] it was 1 µg/mL (≈ 0.837 µM). For the same molecule, the Minimum inhibitory concentration in test [13] is <0.125 µg/mL.
Turning to `CCc1ccc(C(=O)N[C@@H](CCN)C(=O)N[C@H](C(=O)N[C@@H](CN)C(=O)N[C@H]2CCNC(=O)[C@H]([C@@H](C)O)NC(=O)[C@H](CCN)NC(=O)[C@H](CCN)NC(=O)[C@H](CC)NC(=O)[C@@H](CC(C)C)NC(=O)[C@H](CCN)NC2=O)[C@@H](C)O)cn1` [Compound 41] (X26-[Dab]T[Dap][Dab][Dab][dL][Abu][Dab][Dab]T; lactam 4-C), the Minimum inhibitory concentration is 2 µg/mL (≈ 1.79 µM) in [1]; 2 µg/mL (≈ 1.79 µM) in test [2]; <0.125 µg/mL in test [3]; <0.125 µg/mL in [4]; 0.25 µg/mL (≈ 0.223 µM) in test [5]; <0.125 µg/mL in test [6]. The Minimum inhibitory concentration in test [7] is <0.125 µg/mL; in [8] it was <0.125 µg/mL; in [9] it was 0.25 µg/mL (≈ 0.223 µM); in [10], 0.25 µg/mL (≈ 0.223 µM); in test [11] it was <0.125 µg/mL; in [12] it was 0.5 µg/mL (≈ 0.446 µM). Further, in [13], the Minimum inhibitory concentration came to 2 µg/mL (≈ 1.79 µM).
